Results reported in patent US11034666B2, “Anti-inflammatory and antitumor 2-oxothiazoles and 2-oxothiophenes compounds” (Avexxin AS, priority 2013, dated 2021).
pIC50: −log10 of the molar value. Several values for one entry are separate records, joined by “and”; a condition that tells them apart may be missing. Equal values may be shown once. Read-outs that look alike come from different tables or passages of the source.

Tests used:
Assay type in all cases: biochemical
human GIVA cPLA2 [1] = biological target: T1, human GIVA cPLA2 (Homo sapiens, UniProt P47712); assay: In vitro mixed micelle assay, GIVA cPLA2; settings: for inhibition of GIVA cPLA2 (in words): mixed micelle assay, comment on Table 6; for inhibition at 0.091 mole fraction: 0.091 mole fraction of inhibitor, read-out: GIVA cPLA2 % Inhib
T1 sequence (P47712 1-749): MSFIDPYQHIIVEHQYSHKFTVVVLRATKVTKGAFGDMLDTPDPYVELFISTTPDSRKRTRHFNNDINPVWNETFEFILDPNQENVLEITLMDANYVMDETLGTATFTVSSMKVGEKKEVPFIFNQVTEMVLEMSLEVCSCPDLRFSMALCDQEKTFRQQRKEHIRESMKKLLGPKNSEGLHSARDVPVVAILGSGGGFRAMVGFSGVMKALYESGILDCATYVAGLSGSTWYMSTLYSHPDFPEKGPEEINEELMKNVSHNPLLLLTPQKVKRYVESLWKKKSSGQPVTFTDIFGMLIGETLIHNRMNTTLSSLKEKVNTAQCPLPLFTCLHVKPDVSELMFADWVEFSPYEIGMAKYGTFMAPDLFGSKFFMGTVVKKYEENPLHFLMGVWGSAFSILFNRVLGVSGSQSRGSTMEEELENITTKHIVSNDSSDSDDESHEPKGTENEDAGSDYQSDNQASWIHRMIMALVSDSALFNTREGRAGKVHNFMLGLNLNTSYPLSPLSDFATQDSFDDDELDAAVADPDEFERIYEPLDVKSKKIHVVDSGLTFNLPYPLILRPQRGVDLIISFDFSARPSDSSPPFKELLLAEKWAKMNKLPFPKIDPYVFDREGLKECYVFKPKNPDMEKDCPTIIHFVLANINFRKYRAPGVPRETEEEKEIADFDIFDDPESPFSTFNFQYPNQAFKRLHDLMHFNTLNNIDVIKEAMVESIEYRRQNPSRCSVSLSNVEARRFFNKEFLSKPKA
Procedure: (§1) At first, the percent of inhibition for each PLA2 enzyme at 0.091 mole fraction of each inhibitor was determined. […] The XI(50) is the mole fraction of the inhibitor in the total substrate interface required to inhibit the enzyme activity by 50%. […] (ii) GVI iPLA2 substrate mixed-micelles were composed of 400 μM Triton X-100, 98.3 μM PAPC, and 1.7 μM ^14C-labeled PAPC in buffer containing 100 mM HEPES, pH 7.5, 2 mM ATP, and 4 mM DTT; (iii) GV sPLA2 substrate mixed-micelles were composed of 400 μM Triton X-100, 98.3 μM PAPC, and 1.7 μM ^14C-labeled PAPC in buffer containing 50 mMTris, pH 8.0, and 5 mM […] CaCl2.

human GVIA iPLA2 = biological target: T2, human GVIA iPLA2 (Homo sapiens, UniProt O60733); assay: In vitro mixed micelle assay, GVIA iPLA2; settings: for inhibition at 0.091 mole fraction: mixed micelles, 0.091 mole fraction of inhibitor, Table 6, read-out: GVIA iPLA2 % Inhib
T2 sequence (O60733 1-806): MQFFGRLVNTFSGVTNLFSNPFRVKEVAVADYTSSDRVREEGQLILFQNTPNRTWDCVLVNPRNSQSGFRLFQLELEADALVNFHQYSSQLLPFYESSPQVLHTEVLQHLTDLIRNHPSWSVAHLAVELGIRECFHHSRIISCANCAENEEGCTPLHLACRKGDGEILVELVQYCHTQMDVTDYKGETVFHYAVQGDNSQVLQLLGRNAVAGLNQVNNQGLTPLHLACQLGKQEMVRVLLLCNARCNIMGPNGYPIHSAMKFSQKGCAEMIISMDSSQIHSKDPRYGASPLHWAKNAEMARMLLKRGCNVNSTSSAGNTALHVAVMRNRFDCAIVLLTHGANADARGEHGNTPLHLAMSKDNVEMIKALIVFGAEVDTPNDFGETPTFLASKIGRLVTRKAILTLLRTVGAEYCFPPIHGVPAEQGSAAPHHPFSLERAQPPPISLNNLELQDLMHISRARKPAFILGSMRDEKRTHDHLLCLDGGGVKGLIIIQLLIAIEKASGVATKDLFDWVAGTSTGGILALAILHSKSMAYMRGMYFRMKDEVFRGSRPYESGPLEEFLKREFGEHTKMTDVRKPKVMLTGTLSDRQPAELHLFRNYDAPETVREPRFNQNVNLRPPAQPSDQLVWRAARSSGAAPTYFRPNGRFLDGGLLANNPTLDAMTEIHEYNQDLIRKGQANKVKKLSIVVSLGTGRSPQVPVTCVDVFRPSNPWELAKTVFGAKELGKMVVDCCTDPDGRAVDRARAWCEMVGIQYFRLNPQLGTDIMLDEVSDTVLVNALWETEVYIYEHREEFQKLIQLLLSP
Procedure: as §1

human GV sPLA2 = biological target: T3, human GV sPLA2 (Homo sapiens, UniProt P39877); assay: In vitro mixed micelle assay, GV sPLA2; settings: for inhibition at 0.091 mole fraction: mixed micelles, 0.091 mole fraction of inhibitor, Table 6, read-out: GV sPLA2 % Inhib
T3 sequence (P39877 21-138): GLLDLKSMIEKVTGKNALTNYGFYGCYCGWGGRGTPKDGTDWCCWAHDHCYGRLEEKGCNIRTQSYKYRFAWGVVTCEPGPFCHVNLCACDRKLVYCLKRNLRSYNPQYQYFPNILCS
Procedure: as §1

human GIVA cPLA2 [2] = biological target: T1, human GIVA cPLA2; assay: In vitro vesicle assay, cPLA2
Procedure: The effect of the oxothiazoles synthesized on GIVA cPLA2 was measured in vesicles as previously described^51,52 with modifications.^53 The results are presented in Table 6 and are in full agreement with those using the micellar assay. […] From both assays, it is clear that the introduction of the ethyl ester group directly on the heterocyclic ring substantially increases the potency of inhibition. This group presumably develops additional interactions within the enzyme's active site. Comparing the results obtained in mixed micelles and in vesicles is obvious that Compound A stands out in this series of oxothiazoles
GIVA cPLA2 was measured as described^51,52 with modifications.^53 In short, recombinant human GIVA cPLA2 enzyme was pre-incubated with DMSO (1%) with or without inhibitor in assay buffer (80 sec at 37° C., 10 min at 25° C.). Lipid vesicles of L-α-1-palmitoyl-2-arachidonyl-[arachidonyl-1-^14C]-phosphatidylcholine (4.3 nmol) were dried under a steam of N2 (g). The dried lipid was re-suspended in 2 ml assay buffer and sonicated twice (7 min, output 3.5 and 50% duty cycles, on ice) in a Branson Sonifier 250 (Branson Ultrasonic Corporation, Danbury, Conn.). Sonicated lipid (0.2 μM) was added to the reaction and incubated for 1 h at 37° C. followed by addition of a chloroform/methanol stop buffer to terminate the enzymatic reaction. The reaction mixture was separated by centrifugation (5 min, 1640×g). The lower phase was transferred to a glass tube and dried under a steam of N2 (g), re-suspended in chloroform/methanol (9:1, by volume) and applied to a silica gel. Free [1-^14C]arachidonic acid and, L-α-1-palmitoyl-2-arachidonyl-[arachidonyl-1-^14C]-phosphatidylcholine were separated by thin layer chromatography and analyzed as previously described.^54

[3] = % inhibition at 1 μM oxothiazole, read-out: cPLA2 vesicle assay % Inhib
[4] = inhibitors tested in 0-3 μM range, read-out: cPLA2 vesicle assay IC50 (μm)
[5] = mixed micelles, mole fraction of inhibitor for 50% inhibition, Table 6
[6] = tested 0-5 μM, Tables 2 and 4, read-out: cPLA2 in vitro assay (0-5 μM) IC50
[7] = vesicles assay, read-out: IC50 on GIVA cPLA2 in vesicles assay

SMILES	inhibition of GIVA cPLA2 (in words) (human GIVA cPLA2 [1])	inhibition at 0.091 mole fraction (human GIVA cPLA2 [1]; mixed micelles, Table 6) [%]	inhibition at 0.091 mole fraction (human GVIA iPLA2) [%]	inhibition at 0.091 mole fraction (human GV sPLA2) [%]	inhibition at 1 µM (human GIVA cPLA2 [2]; [3]) [%]	pIC50 (human GIVA cPLA2 [2]; [4])	inhibition at 1 µM (human GIVA cPLA2 [2]; at 1 μM, printed in the IC50 column of Table 2, read-out: cPLA2 in vitro assay, % inh at 1 μM) [%]	GIVA cPLA2 XI(50) (human GIVA cPLA2 [1]; Table 2, mole fraction of inhibitor in the total substrate interface for 50% inhibition) [mole fraction]	GIVA cPLA2 % Inhibition (human GIVA cPLA2 [1]; Tables 2 and 4) [%]	GIVA cPLA2 XI(50) (human GIVA cPLA2 [1]; [5])	GVIA iPLA2 % Inhibition (human GVIA iPLA2; Tables 2 and 4) [%]	GV sPLA2 % Inhibition (human GV sPLA2; Tables 2 and 4) [%]	pIC50 (human GIVA cPLA2 [2]; [6])	pIC50 (human GIVA cPLA2 [2]; [7])
CCCCCCCCCCCCOCC(=O)c1nc(CC(=O)OCC)cs1 [Compound X, Ethyl 2-(2-(2-(dodecyloxy)acetyl)thiazol-4-yl)acetate]	proved inactive	49	91	55	0									
CCCCCCCCCCCCOCC(=O)c1nc(C(=O)OCC)cs1 [Compound W, Ethyl 2-(2-(dodecyloxy)acetyl)thiazole-4-carboxylate]		48	92	48	21	< 5.52								
CCCCCCCCc1ccc(OCC(=O)c2nc(CC(=O)OCC)cs2)cc1 [Compound Y, Ethyl 2-(2-(2-(4-octylphenoxy)acetyl)thiazol-4-yl)acetate]	dramatic loss of the activity	64	76	50	25	< 5.52								
O=C(COc1ccc(-c2ccccc2)cc1)c1nccs1 [Compound B, 2-(Biphenyl-4-yloxy)-1-(thiazol-2-yl)ethanone]	did not present any interesting inhibition	80	23	41	26	< 5.52	35							
CCCCCCCCc1ccc(OCC(=O)c2nc(C(=O)OC)cs2)cc1 [Compound A, Methyl 2-(2-(4-octylphenoxy)acetyl)thiazole-4-carboxylate]		> 90	86	41	74			0.011	>90	0.011 mole fraction and 0.011 ± 0.005 mole fraction	86.4	41.1	~6.52	6.52
O=C(COc1ccccc1)c1nccs1 [Compound D, 2-Phenoxy-1-(thiazol-2-yl)ethanone]	did not present any interesting inhibition	40	13	0	26	< 5.52							< 5.30	
O=C(COc1ccc(F)cc1)c1nccs1 [Compound C, 2-(4-Fluorophenoxy)-1-(thiazol-2-yl)ethanone]	did not present any interesting inhibition	58	5	4	7	< 5.52							< 5.30	
CCCCCCCCc1ccc(OCC(=O)c2nccs2)cc1 [Compound T, 2-(4-Octylphenoxy)-1-(thiazol-2-yl)ethanone]	significant inhibitory activity	> 90	67	46	43					0.02 ± 0.007 mole fraction				5.92
